# In US20080287407A1, “Nitric Oxide Releasing Pyruvate Compounds, Compositions and Methods of Use” (NitroMed, Inc., priority 2003, published 2008):
row,SMILES,melting point [°C]
1,"CC(=O)C(=O)N[C@H](CO[N+](=O)[O-])Cc1ccccc1 [Example 5, N-[(1S)-2-(Nitrooxy)-1-benzylethyl]-2-oxopropanamide]",72 to 75
2,"CC(=O)C(=O)N[C@H](CO[N+](=O)[O-])c1ccccc1 [Example 4, N-[(1S)-2-(Nitrooxy)-1-phenylethyl]-2-oxopropanamide]",76 to 77
